Source: publication PMC6905855, “Agonist-specific voltage-dependent gating of lysosomal two-pore Na^+ channels” (eLife, 2019)
“And” between values parts separate entries of the source, which are not always exact repeats. Equal values may be shown once.

Legend:
hTPC2 = biological target: T1, hTPC2 (Homo sapiens, UniProt Q8NHX9); assay: Whole-endolysosome recordings of ITPC2; type: biochemical; conditions: for Normalized I-TPC2: WT TPC2
T1 construct: expressed in transfected cells; host or cells: Cos1 and HEK293
T1 sequence (Q8NHX9 whole entry): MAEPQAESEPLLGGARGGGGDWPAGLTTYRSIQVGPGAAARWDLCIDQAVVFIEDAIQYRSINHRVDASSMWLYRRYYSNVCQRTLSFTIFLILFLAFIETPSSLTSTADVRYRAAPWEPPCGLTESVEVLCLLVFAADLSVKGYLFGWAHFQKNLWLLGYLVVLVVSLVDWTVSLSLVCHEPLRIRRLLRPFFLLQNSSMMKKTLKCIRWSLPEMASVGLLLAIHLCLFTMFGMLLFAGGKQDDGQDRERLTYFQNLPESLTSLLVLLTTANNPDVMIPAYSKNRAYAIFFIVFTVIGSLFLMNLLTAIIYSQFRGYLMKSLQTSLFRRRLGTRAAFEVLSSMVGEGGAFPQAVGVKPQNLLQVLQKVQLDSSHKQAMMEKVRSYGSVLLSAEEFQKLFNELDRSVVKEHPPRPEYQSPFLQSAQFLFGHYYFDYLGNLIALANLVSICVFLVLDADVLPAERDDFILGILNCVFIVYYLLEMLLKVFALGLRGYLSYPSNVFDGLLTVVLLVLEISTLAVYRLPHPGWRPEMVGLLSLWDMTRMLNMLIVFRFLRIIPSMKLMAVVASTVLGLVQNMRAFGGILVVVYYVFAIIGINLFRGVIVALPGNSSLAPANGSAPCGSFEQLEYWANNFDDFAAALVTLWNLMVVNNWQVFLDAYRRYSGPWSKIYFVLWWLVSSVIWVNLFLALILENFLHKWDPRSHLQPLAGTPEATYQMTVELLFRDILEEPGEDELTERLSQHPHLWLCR

[1] = biological target: T2, surface-expressing mutant TPC2 channel (TPC2^LL/AA) in HEK293 cells (Homo sapiens, UniProt Q8NHX9, L11A/L12A); assay: Whole-cell recordings of ITPC2-LL/AA; type: cell-based
T2 construct: expressed in transfected cells; host or cells: HEK293
T2 sequence (Q8NHX9 whole entry L11A/L12A): as the sequence (Q8NHX9 whole entry) above, with L11A, L12A counted along it
Outline: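 HEK293 cells transiently expressing EGFP-tagged human TPC2 L11A/L12A, a plasma-membrane-targeted mutant, recorded 24–36 h post-transfection. Whole-cell patch clamp with fast perfusion of bath solutions; currents digitized at 10 kHz and filtered at 2 kHz.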

hTPC1 = biological target: T3, hTPC1 (Homo sapiens, UniProt Q9ULQ1); assay: Whole-endolysosome recordings of ITPC1; type: biochemical
T3 construct: expressed in transfected cells; host or cells: Cos1

Compound: CN(C)CCCN1c2ccccc2CCc2ccc(Cl)cc21 [LyNa-VA1.1, Clomipramine]
- combined effect with PI(3,5)P2 on whole-endolysosome ITPC2 (in words) (hTPC2; PI(3,5)P2 50 nM): synergistic effects
- EC50 (hTPC2; WT +PI(3,5)P2 (50 nM), whole-endolysosome, Figure 3C): 12 ± 7 µM
- EC50 (hTPC2; WT -PI(3,5)P2, whole-endolysosome, Figure 3C): 48 ± 16 µM
- Normalized I-TPC2 (hTPC2; 1 µM + PI(3,5)P2 50nM, individual patches): 0.3375 and 0.1568 and 0.08956
- Normalized I-TPC2 (hTPC2; 1 µM + PI(3,5)P2 50nM, mean): 0.1946
- Normalized I-TPC2 (hTPC2; 3 µM + PI(3,5)P2 50nM, individual patches): 0.35 and 0.3063 and 0.1
- Normalized I-TPC2 (hTPC2; 3 µM + PI(3,5)P2 50nM, mean): 0.2521
- Normalized I-TPC2 (hTPC2; 10 µM + PI(3,5)P2 50nM, individual patches): 0.5558 and 0.7252 and 0.2889
- Normalized I-TPC2 (hTPC2; 10 µM + PI(3,5)P2 50nM, mean): 0.5233
- Normalized I-TPC2 (hTPC2; 10 µM, no PI(3,5)P2, individual patches): 0.08625 and 0.1427 and 0.1845
- Normalized I-TPC2 (hTPC2; 10 µM, no PI(3,5)P2, mean): 0.1378
- Normalized I-TPC2 (hTPC2; 20 µM, no PI(3,5)P2, individual patches): 0.2419 and 0.1804 and 0.1168
- Normalized I-TPC2 (hTPC2; 20 µM, no PI(3,5)P2, mean): 0.1797
- Normalized I-TPC2 (hTPC2; 30 µM + PI(3,5)P2 50nM, individual patches): 1 (2×) and 0.3222
- Normalized I-TPC2 (hTPC2; 30 µM + PI(3,5)P2 50nM, mean): 0.7741
- Normalized I-TPC2 (hTPC2; 50 µM, no PI(3,5)P2, individual patches): 0.8473 and 0.4535 and 0.5893
- Normalized I-TPC2 (hTPC2; 50 µM, no PI(3,5)P2, mean): 0.63
- Normalized I-TPC2 (hTPC2; 100 µM + PI(3,5)P2 50nM, individual patches): 0.7417 and 0.7423 and 1
- Normalized I-TPC2 (hTPC2; 100 µM + PI(3,5)P2 50nM, mean): 0.828
- Normalized I-TPC2 (hTPC2; 100 µM, no PI(3,5)P2, individual patches): 1 (2×) and 0.99
- Normalized I-TPC2 (hTPC2; 100 µM, no PI(3,5)P2, mean): 0.9967
- Normalized I-TPC2 (hTPC2; 200 µM, no PI(3,5)P2, individual patches): 0.7106 and 0.507 and 0.6545
- Normalized I-TPC2 (hTPC2; 200 µM, no PI(3,5)P2, mean): 0.624
- EC50 (hTPC2; WT+pip2 (50 nM), MEAN (Fig. 3D)): 14.6 µM
- EC50 (hTPC2; WT+pip2 (50 nM), individual patches (Fig. 3D)): 27 µM and 12.6 µM and 4.3 µM
- EC50 (hTPC2; WT-pip2, MEAN (Fig. 3D)): 45.1 µM
- EC50 (hTPC2; WT-pip2, individual patches (Fig. 3D)): 56 µM and 48.4 µM and 30.8 µM
- ITPC2 (hTPC2; whole endolysosome recordings with 100 µM of LyNa-VAs at −120 mV): 945 ± 111 pA
- activation of whole-cell ITPC2-LL/AA (in words) [1]: activated
- current, whole-cell ITPC2-LL/AA [1]: 1835.6 pA and 1904.2 pA and 1632.7 pA and 1290 pA and 1968.1 pA
- EC50 ([1]; whole-cell recordings at −140 mV, TPC2^LL/AA-transfected HEK293 cells, read-out: EC50): 43 ± 2 µM
- effect on whole-endolysosome ITPC1 (in words) (hTPC1): profound suppression of outward currents at potentials positive to Erev (~0 mV), and a substantial enhancement of inward currents negative to Erev
- Dose-dependent activation of TPC1 (normalized ITPC1) (hTPC1; 3 µM, individual patches): 0.0359 and 0.105 and 0
- Dose-dependent activation of TPC1 (normalized ITPC1) (hTPC1; 3 µM, mean): 0.04696
- Dose-dependent activation of TPC1 (normalized ITPC1) (hTPC1; 10 µM, individual patches): 0.1722 and 0.1955 and 0.1208
- Dose-dependent activation of TPC1 (normalized ITPC1) (hTPC1; 10 µM, mean): 0.1629
- Dose-dependent activation of TPC1 (normalized ITPC1) (hTPC1; 30 µM, individual patches): 0.6041 and 0.3178 and 0.3982
- Dose-dependent activation of TPC1 (normalized ITPC1) (hTPC1; 30 µM, mean): 0.44
- Dose-dependent activation of TPC1 (normalized ITPC1) (hTPC1; 100 µM, individual patches): 1 and 0.7031 and 0.8638
- Dose-dependent activation of TPC1 (normalized ITPC1) (hTPC1; 100 µM, mean): 0.8556
- Dose-dependent activation of TPC1 (normalized ITPC1) (hTPC1; 300 µM, individual patches): 0.8072 and 1 (2×)
- Dose-dependent activation of TPC1 (normalized ITPC1) (hTPC1; 300 µM, mean): 0.9357
- τ of ITPC1 step currents (hTPC1; hTPC1, LyNa-VA1.1 (100 µM), Figure 4A): 155 ± 1 ms
- V1/2 of ITPC1 G-V curve (hTPC1; hTPC1, LyNa-VA1.1 (100 µM), Figure 4F): -30 ± 5 mV
- τ of ITPC1 tail currents (hTPC1; hTPC1, tail currents at −120 mV, LyNa-VA1.1 (100 µM), Figure 4E): 203 ± 2 ms
- EC50 (hTPC1; whole-endolysosome, n = 3 patches, read-out: EC50, activation of TPC1): 27 ± 2 µM
